The text below walks through data of patent US4015974A, “Amido phosphorothiolates” (priority 1972, dated 1977).

Format in all cases: in vivo
Series [1] deals with barnyard grass (Echinochloa crus-galli). The series is described as follows: Water application, herbicidal effect on barnyard grass (Table 2). Further details: key: 0: not damaged; 5: completely killed. The note with it: 25 days, score 0-5. From the text:
(§1) Wagner pots of 14 cm. in diameter, which had been packed with 1.5 kg. of paddy field soil, were brought into the state of paddy fields. To the pots were transplanted rice seedlings at the 3-leave stage. Further, seeds of barnyard grass (Echinochloa crus-galli) were sowed in the pots and required amounts of test compounds were applied to the soil under water lodged condition. 25 days after application, the degrees of herbicidal activity and phytotoxity were investigated on above-mentioned plants which had been transplanted and sowed, and on broad-leaved weeds, e.g., monochoria (Monochoria viaginalis Presl.), false pimpernel (Linderna pyxidaria) and toothcup (Rotala indica Koehue), which had been spontaneously germinated. The test compounds were used in the form of wettable powder. The herbicidal effects and the phytotoxity were evaluated as follows by the numerals ranging from 0 to 5.

In series [2] the test system is broad-leaved weeds, e.g., monochoria, false pimpernel and toothcup. The series is described as follows: Water application, herbicidal effect on broad-leaved weeds (Table 2). The note with it: 25 days, score 0-5. Further details: key: 0: not damaged; 5: completely killed.
Source text: as §1

Series [3] relates to radish. Put plainly: Pre-emergence application, herbicidal effect on radish (Table 1). Further details: key: 0: not damaged; 5: completely killed. The note with it: 20 days after application, score 0-5. From the text: (§2) Seeds of barnyard grass (Echinochloa crus-galli) and large crabgrass (Digitaria sanguinalis) as representatives of grassy weeds and those of radish, redroot pigweed (Amaranthus retroflexus), common purslane (Portulaca oleracea) and common lambsquarter (Chenopodium album) as representatives of broad-leaved weeds were individually sowed in flower pots of about 10 cm. in diameter. After covering the seeds with soil, test compounds as shown in Table 1 were individually applied to the soil treatment. Thereafter the plants were grown in a green house and 20 days after application the herbicidal effects of the compounds were observed, the results of which are as shown in Table 1.
(§3) Herbicidal effects were evaluated by the numerals ranging from 0 (not damaged) to 5 (completely killed). All the test compounds were used in the form of wettable powder and diluted with water before application.

Series [4] concerns redroot pigweed (Amaranthus retroflexus). The series is described as follows: Pre-emergence application, herbicidal effect on redroot pigweed (Table 1). Further details: key: 0: not damaged; 5: completely killed. The note with it: 20 days after application, score 0-5.
Source text: as §2, §3

Series [5] deals with barnyard grass (Echinochloa crus-galli). The series is described as follows: Pre-emergence application, herbicidal effect on barnyard grass (Table 1). The note with it: 20 days after application, score 0-5. Further details: key: 0: not damaged; 5: completely killed.
Source text: as §2, §3

Series [6] has as its system rice. The series is described as follows: Water application, phytotoxicity on rice (Table 2). Further details: key: 0: no effect; 1: very slightly affected; 2: slightly affected; 3: moderately affected; 4: considerably affected; 5: completely killed. The note with it: 25 days, score 0-5.
Source text: as §1

Series [7] relates to large crabgrass (Digitaria sanguinalis). The series is described as follows: Pre-emergence application, herbicidal effect on large crabgrass (Table 1). Further details: key: 0: not damaged; 5: completely killed. The note with it: 20 days after application, score 0-5.
Source text: as §2, §3

Series [8] concerns common lambsquarter (Chenopodium album). Put plainly: Pre-emergence application, herbicidal effect on common lambsquarter (Table 1). The note with it: 20 days after application, score 0-5. Further details: key: 0: not damaged; 5: completely killed.
Source text: as §2, §3

For series [9], the system named is common purslane (Portulaca oleracea). Put plainly: Pre-emergence application, herbicidal effect on common purslane (Table 1). Further details: key: 0: not damaged; 5: completely killed. The note with it: 20 days after application, score 0-5.
Source text: as §2, §3

As to `CCOP(=O)(SCC)SCC(=O)N1CCCCC1C` (stereo not drawn) [Compound 1], the “Herbicidal effects, barnyard grass” value in [1] (10 g/a), in [1] (20 g/a) and in series [1] (40 g/a) was 5 throughout. The “Herbicidal effects, broad-leaved weeds” value in series [2] (10 g/a), in series [2] (20 g/a) and in series [2] (40 g/a) was 5 each time. Moreover, the “Herbicidal effect, radish” value in series [3] (10 g./a.), in series [3] (20 g./a.) and in series [3] (40 g./a.) was 0 throughout. Also, the “Herbicidal effect, redroot pigweed” value in series [4] (10 g./a.) turned out to be 4; in series [4] (20 g./a.) it was 5; in series [4] (40 g./a.), 5. Also, the “Herbicidal effect, barnyard grass” value in series [5] (10 g./a.), in series [5] (20 g./a.) and in series [5] (40 g./a.) was 5 throughout. Besides, the Phytotoxicity on rice in series [6] (10 g/a), in series [6] (20 g/a) and in series [6] (40 g/a) was 0 each time. In addition, the “Herbicidal effect, large crabgrass” value in series [7] (10 g./a.), in series [7] (20 g./a.) and in series [7] (40 g./a.) was 5 in each case. Besides, the “Herbicidal effect, common lambsquarter” value in series [8] (10 g./a.) was 4; in [8] (20 g./a.), 4; in series [8] (40 g./a.), 5. For the same compound, the “Herbicidal effect, common purslane” value was found to be 4 in series [9] (10 g./a.), 4 in series [9] (20 g./a.) and 5 in [9] (40 g./a.).
Consider `CCCCOP(=O)(SCC)SCC(=O)N1CCCCC1C` (stereo not drawn) [Compound 15], for which the “Herbicidal effects, barnyard grass” value in [1] (10 g/a), in [1] (20 g/a) and in series [1] (40 g/a) was 5 each time. Further, the “Herbicidal effects, broad-leaved weeds” value in series [2] (10 g/a), in series [2] (20 g/a) and in series [2] (40 g/a) was 5 throughout. The “Herbicidal effect, radish” value in series [3] (10 g./a.), in series [3] (20 g./a.) and in series [3] (40 g./a.) was 0 in each case. Moreover, the “Herbicidal effect, redroot pigweed” value in series [4] (10 g./a.) is listed as 4; in series [4] (20 g./a.), 5; in series [4] (40 g./a.), 5. Further, the “Herbicidal effect, barnyard grass” value in series [5] (10 g./a.), in [5] (20 g./a.) and in series [5] (40 g./a.) was 5 in each case. Further, the Phytotoxicity on rice in series [6] (10 g/a), in series [6] (20 g/a) and in series [6] (40 g/a) was 0 in each case. Besides, the “Herbicidal effect, large crabgrass” value in [7] (10 g./a.), in series [7] (20 g./a.) and in [7] (40 g./a.) was 5 each time. Further, the “Herbicidal effect, common lambsquarter” value in [8] (10 g./a.) is 4; in series [8] (20 g./a.), 5; in [8] (40 g./a.) it was 5. Besides, the “Herbicidal effect, common purslane” value in series [9] (10 g./a.), in [9] (20 g./a.) and in series [9] (40 g./a.) was 5 in each case.
Regarding `CCCOP(=O)(SCCC)SCC(=O)N1CCCCC1C` (stereo not drawn) [Compound 16, O,S-di-n-propyl-S-(2-methylpiperidinocarbamoylmethyl)phosphorodithiolate], the “Herbicidal effects, barnyard grass” value in [1] (10 g/a), in [1] (20 g/a) and in series [1] (40 g/a) was 5 throughout. For the same compound, the “Herbicidal effects, broad-leaved weeds” value in [2] (10 g/a), in [2] (20 g/a) and in series [2] (40 g/a) was 5 each time. Besides, the “Herbicidal effect, radish” value in series [3] (10 g./a.), in series [3] (20 g./a.) and in series [3] (40 g./a.) was 0 each time. Moreover, the “Herbicidal effect, redroot pigweed” value in series [4] (10 g./a.), in [4] (20 g./a.) and in series [4] (40 g./a.) was 4 each time. Also, the “Herbicidal effect, barnyard grass” value in [5] (10 g./a.) is 4; in series [5] (20 g./a.) it was 4; in series [5] (40 g./a.), 5. The Phytotoxicity on rice in series [6] (10 g/a), in [6] (20 g/a) and in series [6] (40 g/a) was 0 in each case. The “Herbicidal effect, large crabgrass” value in [7] (10 g./a.), in series [7] (20 g./a.) and in [7] (40 g./a.) was 5 in each case. In addition, the entries for the “Herbicidal effect, common lambsquarter” value in series [8] (10 g./a.), in series [8] (20 g./a.) and in [8] (40 g./a.) were 4, 4 and 5, respectively. Moreover, the “Herbicidal effect, common purslane” value in series [9] (10 g./a.), in series [9] (20 g./a.) and in series [9] (40 g./a.) was 4 throughout.
On to `CCOP(=O)(SCC(=O)N1CCCC(C)C1)SC(C)C` (stereo not drawn) [Compound 22], for which the “Herbicidal effects, barnyard grass” value in series [1] (10 g/a), in series [1] (20 g/a) and in series [1] (40 g/a) was 5 throughout. Moreover, the “Herbicidal effects, broad-leaved weeds” value in series [2] (10 g/a), in [2] (20 g/a) and in series [2] (40 g/a) was 5 throughout. The “Herbicidal effect, radish” value in [3] (10 g./a.), in [3] (20 g./a.) and in [3] (40 g./a.) was 0 throughout. Besides, the entries for the “Herbicidal effect, redroot pigweed” value in [4] (10 g./a.), in series [4] (20 g./a.) and in [4] (40 g./a.) were 3, 4 and 5, respectively. For the same compound, the “Herbicidal effect, barnyard grass” value in [5] (10 g./a.) is 4; in series [5] (20 g./a.), 5; in [5] (40 g./a.), 5. The Phytotoxicity on rice in series [6] (10 g/a), in series [6] (20 g/a) and in [6] (40 g/a) was 0 each time. Also, the results for the “Herbicidal effect, large crabgrass” value in series [7] (10 g./a.), in series [7] (20 g./a.) and in series [7] (40 g./a.) were 4, 5 and 5, respectively. In addition, the “Herbicidal effect, common lambsquarter” value worked out at 4 in [8] (10 g./a.), 4 in series [8] (20 g./a.) and 5 in [8] (40 g./a.). Besides, the “Herbicidal effect, common purslane” value in series [9] (10 g./a.), in [9] (20 g./a.) and in series [9] (40 g./a.) was 4 in each case.
In the case of `CCOP(=O)(SCC(=O)N1CCC(C)CC1)SC(C)C` (stereo not drawn) [Compound 26], the “Herbicidal effects, barnyard grass” value in series [1] (10 g/a), in [1] (20 g/a) and in series [1] (40 g/a) was 5 each time. The “Herbicidal effects, broad-leaved weeds” value in series [2] (10 g/a), in series [2] (20 g/a) and in [2] (40 g/a) was 5 each time. In addition, the “Herbicidal effect, radish” value in series [3] (10 g./a.), in series [3] (20 g./a.) and in series [3] (40 g./a.) was 0 in each case. The “Herbicidal effect, redroot pigweed” value in [4] (10 g./a.), in series [4] (20 g./a.) and in [4] (40 g./a.) was 4 each time. For the same compound, the “Herbicidal effect, barnyard grass” value in series [5] (10 g./a.) is recorded as 4; in series [5] (20 g./a.), 5; in series [5] (40 g./a.), 5. The Phytotoxicity on rice in series [6] (10 g/a), in [6] (20 g/a) and in series [6] (40 g/a) was 0 each time. Moreover, the “Herbicidal effect, large crabgrass” value is on record as 4 in series [7] (10 g./a.), 5 in series [7] (20 g./a.) and 5 in series [7] (40 g./a.). Further, the “Herbicidal effect, common lambsquarter” value in series [8] (10 g./a.) was 3; in series [8] (20 g./a.), 4; in [8] (40 g./a.), 4. For the same compound, the “Herbicidal effect, common purslane” value in series [9] (10 g./a.), in [9] (20 g./a.) and in series [9] (40 g./a.) was 4 throughout.
For `O=[N+]([O-])c1ccc(Oc2ccc(Cl)cc2Cl)cc1` [NIP, reference compound], the “Herbicidal effects, barnyard grass” value in series [1] (20 g/a) and in series [1] (40 g/a) was 5 each time. The “Herbicidal effects, broad-leaved weeds” value in [2] (20 g/a) and in series [2] (40 g/a) was 5 each time. For the same compound, the Phytotoxicity on rice was 2 in series [6] (20 g/a) and 4 in [6] (40 g/a).
